{"source": "patent US10829427B2", "about": "“Naphthoquinones, pro-drugs, and methods of use thereof” (The Board of Regents of the University of Texas System, priority 2015, dated 2020)", "key": {"Mia PaCa-2 cells": {"system": "Mia PaCa-2 cells", "assay": "ATP assay (ATP depletion / cell viability) in Mia PaCa-2 cells", "assay_type": "cell-based, human", "experimental": "(§1) In vitro anti-cancer activity of the compound were performed using ATP Assay Kit (Abcam, ab83355) to initially screen, and further performed using 7-day DNA assay.\n(§2) Cell culture: endogenous NQO1 overexpressing human MIA PaCa-2 pancreactic and A549 NSCLC cancer cells were obtained (Bey, et al., 2007; Li, et al., 2011). Cancer cells were grown in DMEM with 5% FBS and Mycoplasma free, and cultured at 37° C. in a 5% CO2 95% air humidified atmosphere.\nATP assay: Cells were seeded into each well of a 96-well plate (15000 cells/well) 18 hours ahead of experiment. After aspiration of the media from each well, 100 μl drug-contained media was added instead, and further incubated for 2 hours. After incubation, 100 μl ATP assay kit mixture was added into every well. Following further shaking for 10 minutes with light proof, the data were collected by reading luminescence integrate 1 second per well."}, "A549 cells": {"system": "A549 cells", "assay": "Cell viability in A549 cells (7-day DNA assay)", "assay_type": "cell-based, human", "settings": "relative to β-lapachone", "experimental": "as §1, §2\nDNA assay: Cells were seeded into each well of a 48-well plate (10000 cells/well) 24 hours ahead of experiment. After aspiration of the media from each well, 500 μl drug-contained media was added instead, and further incubated for 2 hours. Drugs were then removed, control growth medium was added, and cells were allowed to grow for an additional 7 days. Drugs were added to medium at a 1:1000 dilution immediately before administration to cells. DNA content (a measure of cell growth) was determined by fluoresence of the DNA dye Hoescht 33258 (Sigma), and read in a Cytofluor fluoresence plate reader. Data were expressed as relative growth with 6 repetitions."}, "MiaPaca 2": {"system": "MiaPaca 2", "assay": "Relative survival DNA assay, MiaPaca 2, with or without dicoumarol", "assay_type": "cell-based, human", "settings": "for IC50: Homo sapiens, read-out: Inhibition of cell survival of DNA assay IC50", "experimental": "(§3) Cell Lines and Culture. Endogenous NQO1 overexpressing human MiaPaca-2 (pancreatic carcinoma), A549 (None-small cell lung carcinoma), and MCF-7 (breast adenocarcinoma) were obtained (Bey, et al., 2007; Li, et al., 2011). All cell lines were grown in DMEM (Life Technologies) containing 5%-10% FBS (Fisher Scientific) in a 5% CO2 and 95% air incubator at 37° C.\n(§4) Relative Survival Assays. Relative survival was assessed by DNA content and colony forming assays as described (Dong, et al., 2010). Briefly, for DNA content, cells were seeded at 1×10^4 per well in 48-well plates and allowed to attach overnight. Cells were then mock treated or treated with various doses of naphthaquinones (for 2 hours) in the presence or absence of dicoumarol as indicated. Drug-free medium was then added and cells were allowed to grow for 5 to 7 days until control cells reached ˜100% confluence. DNA content was then determined by Hoechst 33258 staining and fluorescence detection using a plate reader (Perkin-Elmer)."}, "A549": {"system": "A549", "assay": "Relative survival DNA assay, A549, with or without dicoumarol", "assay_type": "cell-based, human", "settings": "for IC50: Homo sapiens, read-out: Inhibition of cell survival of DNA assay IC50", "experimental": "as §3, §4"}, "MCF-7": {"system": "MCF-7", "assay": "Relative survival DNA assay, MCF-7, with or without dicoumarol", "assay_type": "cell-based, human", "settings": "for IC50: Homo sapiens, read-out: Inhibition of cell survival of DNA assay IC50", "experimental": "as §3, §4"}, "H596": {"system": "H596", "assay": "Relative survival DNA assay, H596 (low NQO1 expression)", "assay_type": "cell-based", "experimental": "as §4"}, "orthotopic A549 model": {"system": "orthotopic A549 model", "assay": "In vivo anti-tumor efficacy, NOD-SCID mice bearing orthotopic A549 model", "experimental": "Formulation. β-lap-HPβCD formulation was prepared according to our previous report.^14 NQ-059 and HPβCD (1:45, w/w) were dissolved in EtOH, and then concentrated in vacuo to form a thin film or a sponge-like film. PBS was added, and a clear solution was formed with shaking. Immediately filtration through a Ø 0.45 µm filter (Whatman), a stable solution was afforded, whose concentration was quantified by UV-vis at 256 nm.\n(§5) Survival and Antitumor Efficacies. 6- to 8-week-old NOD-SCID female mice were tail-vein administrated with luciferase gene-transfected A549 cells (1.0×106), and randomized into groups (n=7-13/group), monitored for tumor formation in the lungs using bioluminescence (BLI) following treatment with vehicle, β-lap-HPβCD, or NQ-059-HPβCD. An average of 1.0×10^7 total photons was used before any therapies were given as described (Huang, et al., 2012). Animals were treated with vehicle, β-lap-HPβCD (20 mg/kg), or NQ-059-HPβCD (15 and 12 mg/kg) via tail vein and repeated five times every 3 days. Tumor-bearing mice were imaged using BLI to estimate relative tumor volumes as described (Ma, et al., 2015) using D-luciferin (Promega, 2.5 mg, subcutaneously injected). Relative tumor volume estimates were derived from BLI images of mice captured using a Xenogen Vivovision IVIS Lumina Imager (60 s exposure time). Animals were monitored daily for survival and morbidity. Mortality was recorded over times as a result of cancer-related deaths or drug-related toxicities (≥20% body weight loss relative to the start of therapy). Athymic Nu/Nu nude female mice (18-20 grams) were commercially obtained (Harlan). Human xenografts were generated by injecting 2×10^6 MiaPaca-2 cells subcutaneously in PBS/Matrigel into 6-week-old mice. Tumors were measured at indicated times with digital calipers (Fisher Scientific), and tumor volumes calculated (length×width^2×0.5). Treatments were initiated when subcutaneous tumors reached an average size of >100 mm (Cao, et al., 2003)."}, "[1]": {"system": "subcutaneous MiaPaca-2 model", "assay": "In vivo anti-tumor efficacy, nude mice bearing subcutaneous MiaPaca-2 model", "parameters": "species or system Athymic Nu/Nu nude female mice", "settings": "subcutaneous MiaPaca-2 tumor model, FIG. 8", "experimental": "as §5, with “Human xenografts were generated by injecting 2×10^6 MiaPaca-2 cells subcutaneously in PBS/Matrigel into 6-week-old mice.” left out, “Treatments were initiated when subcutaneous tumors reached an average size of >100 mm (Cao, et al., 2003).” left out"}, "blood": {"system": "blood", "assay": "Hemolysis assay", "settings": "formulated with cyclodextran 1:30; relative to a blank cyclodextran or a DMSO vehicle, FIG. 9", "description": "Hemolysis assay. Hemolysis was quantified and modified according to method previously described (Blanco, et al., 2010). Briefly, after treatment with the blood, the plasma was separated and tested with UV-Vis at 576 nm, and hemolysis was quantified comparing treatment group and control group."}, "red blood cells": {"system": "red blood cells", "assay": "Methemoglobinemia assay", "settings": "formulated with cyclodextran 1:30; relative to a blank cyclodextran or a DMSO vehicle, FIG. 10", "experimental": "Methemoglobinemia assay. Collected red blood cells were suspended in 96 well plates or single wells, then were treated with drug for certain time at 37° C. Immediately after the treatment completed, the cells were sit in ice-bath and lysed with 5% Triton X-100. The clear solution afforded were tested with UV-vis at 630 nm, and then were treated with […] K3FeCN6 for 1 min. The yellow solution afforded was tested again at 630 nm."}}, "note": "Read-outs that look alike come from different tables or passages of the source."}
{"smiles": "CC(=O)Nc1cccc2c1C(=O)C(=O)C=C2OC(C)C", "note": "[Compound 24, N-(5-isopropoxy-7,8-dioxo-7,8-dihydronaphthalen-1-yl)acetamide]", "values": [{"measurement": "Fold (IC50 β-lap/IC50 NQ-059)", "setting": "Mia PaCa-2 cells; ATP assay, MiaPac-2, Vehicle", "result": 2.9}, {"measurement": "IC50", "setting": "Mia PaCa-2 cells; Homo sapiens, MIA PaCa-2, MiaPac-2, Vehicle, read-out: Inhibition of cell viability of ATP assay IC50", "result": 0.97, "unit": "µM"}, {"measurement": "IC50/IC50 (β-lapachone/Compoud)", "setting": "Mia PaCa-2 cells; Relative activity compare with β-lapachone in ATP depletion of Mia PaCa-2 cells", "result": ">3"}, {"measurement": "IC50/IC50 (β-lapachone/Compoud)", "setting": "A549 cells", "result": ">3"}, {"measurement": "Fold (IC50 β-lap/IC50 NQ-059)", "setting": "MiaPaca 2; DNA assay, MiaPaca 2, Vehicle", "result": 4.9}, {"measurement": "IC50", "setting": "MiaPaca 2; MIA PaCa-2, MiaPaca 2, Dic (dicoumarol, NQO1 inhibitor)", "result": "> 10", "unit": "µM"}, {"measurement": "IC50", "setting": "MiaPaca 2; MIA PaCa-2, MiaPaca 2, Vehicle", "result": 0.88, "unit": "µM"}, {"measurement": "Activity relative to β-lapachone on the same plate", "setting": "MiaPaca 2; MiaPac2, FIG. 5A", "result": "increased activity"}, {"measurement": "DNA amount in survival assay relative to β-lapachone", "setting": "MiaPaca 2; MiaPaca 2, FIGS. 4A-4C", "result": "decreased DNA amounts at lower concentrations relative to β-lapachone"}, {"measurement": "Activity relative to β-lapachone on the same plate", "setting": "A549; A549, FIG. 5B", "result": "increased activity"}, {"measurement": "DNA amount in survival assay relative to β-lapachone", "setting": "A549; A549, FIGS. 4G-4I", "result": "decreased DNA amounts at lower concentrations relative to β-lapachone"}, {"measurement": "Fold (IC50 β-lap/IC50 NQ-059)", "setting": "A549; DNA assay, A549, Vehicle", "result": 3.9}, {"measurement": "IC50", "setting": "A549; A549, A549, Dic (dicoumarol, NQO1 inhibitor)", "result": "> 10", "unit": "µM"}, {"measurement": "IC50", "setting": "A549; A549, A549, Vehicle", "result": 1.25, "unit": "µM"}, {"measurement": "Fold (IC50 β-lap/IC50 NQ-059)", "setting": "MCF-7; DNA assay, MCF-7, Vehicle", "result": 2.2}, {"measurement": "IC50", "setting": "MCF-7; MCF7, MCF-7, Dic (dicoumarol, NQO1 inhibitor)", "result": "> 10", "unit": "µM"}, {"measurement": "IC50", "setting": "MCF-7; MCF7, MCF-7, Vehicle", "result": 0.95, "unit": "µM"}, {"measurement": "DNA amount in survival assay relative to β-lapachone", "setting": "MCF-7; MCF-7, FIGS. 4D-4F", "result": "decreased DNA amounts at lower concentrations relative to β-lapachone"}, {"measurement": "DNA amount in survival assay", "setting": "H596; H596, FIG. 4J", "result": "lowest amount of DNA at the lowest concentration"}, {"measurement": "IC50", "setting": "H596; Homo sapiens, NCI-H596, H596 (low NQO1 expression), Vehicle, read-out: Inhibition of cell survival of DNA assay IC50", "result": "> 10", "unit": "µM"}, {"measurement": "Tumor growth via bioluminescence imaging", "setting": "orthotopic A549 model; after 74 days, 12 mg/kg", "result": "some growth"}, {"measurement": "Tumor growth via bioluminescence imaging", "setting": "orthotopic A549 model; after day 44, 12 mg/kg", "result": "Neither 12 mg/kg or 15 mg/kg NQ-059 showed any tumor growth"}, {"measurement": "Tumor growth via bioluminescence imaging", "setting": "orthotopic A549 model; after day 44, 15 mg/kg", "result": "Neither 12 mg/kg or 15 mg/kg NQ-059 showed any tumor growth"}, {"measurement": "Tumor volume relative to vehicle", "setting": "orthotopic A549 model; orthotopic A549, FIG. 7B", "result": "significantly improved over the vehicle"}, {"measurement": "Survival relative to vehicle", "setting": "orthotopic A549 model; orthotopic A549, FIG. 7C", "result": "significantly improved over the vehicle"}, {"measurement": "Tumor volume relative to the vehicle", "setting": "[1]", "result": "statistically significant improvement"}, {"measurement": "Hemolysis", "setting": "blood", "result": "reduced toxicity"}, {"measurement": "Methemoglobinemia", "setting": "red blood cells", "result": "reduced toxicity"}]}
